# According to patent publication US20040082589A1, “Quinoline derivatives as nk-3 and nk-2 antagonists” (priority 2000, published 2004):
row,Structure (SMILES),melting point
1,"C[C@H](NC(=O)c1c(CN2CCN(C(=O)[C@@H]3C[C@H]3C(=O)O)CC2)c(-c2ccccc2)nc2ccccc12)c1ccccc1 (mixture of isomers) [Example 7, Trans 2-(1-{4-[2-Phenyl-4-((S)-1-phenyl-ethylcarbamoyl)-quinolin-3-ylmethyl]-piperazin-1-yl}-methanoyl)-cyclopropanecarboxylic acid]",135 to 145 °C
2,"C[C@H](NC(=O)c1c(CN2CCN(C(=O)[C@H]3CCCC[C@H]3C(=O)O)CC2)c(-c2ccccc2)nc2ccccc12)c1ccccc1 (mixture of isomers) [Example 8, Cis 2-(1-{4-[2-Phenyl-4-((S)-1-phenyl-ethylcarbamoyl)-quinolin-3-ylmethyl]-piperazin-1-yl}-methanoyl)-cyclohexanecarboxylic acid]",130 to 140 °C
3,"C[C@H](NC(=O)c1c(CN2CCN(C(=O)CC(C)(C)CC(=O)O)CC2)c(-c2ccccc2)nc2ccccc12)c1ccccc1 [Example 6, 3,3-Dimethyl-5-oxo-5-{4-[2-phenyl-4-((S)-1-phenyl-ethylcarbamoyl)-quinolin-3-ylmethyl]-piperazin-1-yl}-pentanoic acid]",213 to 215 °C
4,"C[C@H](NC(=O)c1c(CN2CCN(C(=O)/C=C/C(=O)O)CC2)c(-c2ccccc2)nc2ccccc12)c1ccccc1 [Example 9, (E)-4-Oxo-4-{4-[2-phenyl-4-((S)-1-phenyl-ethylcarbamoyl)-quinolin-3-ylmethyl]-piperazin-1-yl}-but-2-enoic acid]",214 to 215 °C
5,"C[C@H](NC(=O)c1c(CN2CCN(C(=O)CC(=O)O)CC2)c(-c2ccccc2)nc2ccccc12)C1CCCCC1 [Example 10, 3-{4-[4-((S)-1-Cyclohexyl-ethylcarbamoyl)-2-phenyl-quinolin-3-ylmethyl]-piperazin-1-yl}-3-oxo-propionic acid]",150 to 155 °C
6,"C[C@H](NC(=O)c1c(CN2CCN(C(=O)CCCC(=O)O)CC2)c(-c2ccccc2)nc2ccccc12)C1CCCCC1 [Example 11, 5-{4-[4-((S)-1-Cyclohexyl-ethylcarbamoyl)-2-phenyl-quinolin-3-ylmethyl]-piperazin-1-yl}-5-oxo-pentanoic acid]",125 to 130 °C
7,"C[C@H](NC(=O)c1c(CN2CCN(C(=O)c3nccnc3C(=O)O)CC2)c(-c2ccccc2)nc2ccccc12)C1CCCCC1 [Example 12, 3-(1-{4-[4-((S)-1-Cyclohexyl-ethylcarbamoyl)-2-phenyl-quinolin-3-ylmethyl]-piperazin-1-yl}-methanoyl)-pyrazine-2-carboxylic acid]",162 to 165 °C

# Now from value to compound:
row,melting point,Structure (SMILES)
1,179 to 180 °C,"C[C@H](NC(=O)c1c(CN2CCN(C(=O)c3cccc(C(=O)O)c3)CC2)c(-c2ccccc2)nc2ccccc12)C1CCCCC1 [Example 13, 3-(1-{4-[4-((S)-1-Cyclohexyl-ethylcarbamoyl)-2-phenyl-quinolin-3-ylmethyl]-piperazin-1-yl}-methanoyl)-benzoic acid]"
2,250 to 255 °C (dec.),"C[C@H](NC(=O)c1c(CN2CCN(C(=O)c3cncc(C(=O)O)c3)CC2)c(-c2ccccc2)nc2ccccc12)C1CCCCC1 [Example 14, 5-(1-{4-[4-((S)-1-Cyclohexyl-ethylcarbamoyl)-2-phenyl-quinolin-3-ylmethyl]-piperazin-1-yl}-methanoyl)-nicotinic acid]"
3,185 to 188 °C,"C[C@H](NC(=O)c1c(CN2CCN(C(=O)c3ccc(C(=O)O)cc3)CC2)c(-c2ccccc2)nc2ccccc12)C1CCCCC1 [Example 15, 4-(1-{4-[4-((S)-1-Cyclohexyl-ethylcarbamoyl)-2-phenyl-quinolin-3-ylmethyl]-piperazin-1-yl}-methanoyl)-benzoic acid]"
4,125 to 129 °C,"CCOC(=O)C(C(=O)N1CCN(Cc2c(-c3ccccc3)nc3ccccc3c2C(=O)N[C@@H](C)C2CCCCC2)CC1)c1ccccc1 (stereo partly drawn) [Example 16, 3-{4-[4-((S)-1-Cyclohexyl-ethylcarbamoyl)-2-phenyl-quinolin-3-ylmethyl]-piperazin-1-yl}-3-oxo-2-phenyl-propionic acid ethyl ester]"
5,116 to 119 °C,"C[C@H](NC(=O)c1c(CN2CCN(C=O)CC2)c(-c2ccccc2)nc2ccccc12)C1CCCCC1 [Example 18, 3-(4-Formyl-piperazin-1-ylmethyl)-2-phenyl-quinoline-4-carboxylic acid ((S)-1-cyclohexyl-ethyl)-amide]"
6,164 to 166 °C,"C[C@H](NC(=O)c1c(CN2CCN(C(=O)CCN)CC2)c(-c2ccccc2)nc2ccccc12)C1CCCCC1 [Example 21, 3-[4-(3-Amino-propanoyl)-piperazin-1-ylmethyl]-2-phenyl-quinoline-4-carboxylic acid ((S)-1-cyclohexyl-ethyl)-amide]"
7,125 °C,"CCNCCC(=O)N1CCN(Cc2c(-c3ccccc3)nc3ccccc3c2C(=O)N[C@@H](C)C2CCCCC2)CC1 [Example 22, 3-[4-(3-Ethylamino-propanoyl)-piperazin-1-ylmethyl]-2-phenyl-quinoline-4-carboxylic acid ((S)-1-cyclohexyl-ethyl)-amide]"
8,120 to 122 °C,"C[C@H](NC(=O)c1c(CN2CCN(C(=O)CCN3CCCCC3)CC2)c(-c2ccccc2)nc2ccccc12)C1CCCCC1 [Example 24, 2-Phenyl-3-[4-(3-piperidin-1-yl-propanoyl)-piperazin-1-ylmethyl]-quinoline-4-carboxylic acid ((S)-1-cyclohexyl-ethyl)-amide]"
